Measurements reported in patent publication US20030004157A1, “Use of NK-1 receptor antagonists against benign prostatic hyperplasia” (priority 2001, published 2003).

System: Beagle dogs
Test: 39-week toxicity study in the dog
Format: in vivo
Conditions: 39 weeks; for PROSTATE diff. % vs. control (relative organ weight) / PROSTATE per 100 g BW relative (mean relative organ weight) / TESTES diff. % vs. control (relative organ weight) / TESTES per 100 g BW relative (mean relative organ weight) / PROSTATE absolute (mean absolute organ weight) / TESTES absolute (mean absolute organ weight): male Beagle dogs, oral gavage, SEDDS formulation; for PROSTATE absolute (mean absolute organ weight) / TESTES absolute (mean absolute organ weight): in g (unit assumed); for reduced weights of the prostate gland compared to the control / microscopic changes of the prostate (animals affected): males
Method: In a nine-month study four groups of Beagle dogs (4 animals/gender/group; 5-6 months of age at study start) received oral doses (gavage) of 0 (placebo), 6, 20 and 60 mg/kg/d of 2-(3,5-bis-trifluoromethyl-phenyl)-N-methyl-N-(6-morpholin-4-yl-4-o-tolyl-pyridin-3-yl)-isobutyramide as a SEDDS formulation for 39 weeks. The following variables were investigated: clinical signs, body weights, food consumption, ophthalmoscopy before and at the end of the study, electrocardiography, heart rate, toxicokinetics at different time-points, clinical pathology (hematology, biochemistry, urinalysis) in 3-months intervals, necropsy and tissue preservation, organ weights and histopathology.
Mean absolute organ weights were adjusted to 100 g of the mean terminal body weights=>mean relative organ weights.
Mean relative organ weights were compared to the corresponding control=>% deviation.

Cc1ccccc1-c1cc(N2CCOCC2)ncc1N(C)C(=O)C(C)(C)c1cc(C(F)(F)F)cc(C(F)(F)F)c1 [2-(3,5-bis-trifluoromethyl-phenyl)-N-methyl-N-(6-morpholin-4-yl-4-o-tolyl-pyridin-3-yl)-isobutyramide]
abnormalities in organ systems other than prostate (6, 20 and 60 mg/kg/d oral): no overt abnormalities in any other organ system | liver changes (6, 20 and 60 mg/kg/d oral): Mild changes in the liver (hepatocyte hypertrophy with slightly increased organ weights) | PROSTATE diff. % vs. control (relative organ weight) (6 mg/kg/d): −24% | PROSTATE per 100 g BW relative (mean relative organ weight) (6 mg/kg/d): 0.059 | TESTES diff. % vs. control (relative organ weight) (6 mg/kg/d): +1% | TESTES per 100 g BW relative (mean relative organ weight) (6 mg/kg/d): 0.1803 | PROSTATE absolute (mean absolute organ weight) (6 mg/kg/d): 8.066 | TESTES absolute (mean absolute organ weight) (6 mg/kg/d): 24.577 | PROSTATE diff. % vs. control (relative organ weight) (20 mg/kg/d): −37% | PROSTATE per 100 g BW relative (mean relative organ weight) (20 mg/kg/d): 0.049 | TESTES diff. % vs. control (relative organ weight) (20 mg/kg/d): +6% | TESTES per 100 g BW relative (mean relative organ weight) (20 mg/kg/d): 0.1804 | PROSTATE absolute (mean absolute organ weight) (20 mg/kg/d): 6.413 | TESTES absolute (mean absolute organ weight) (20 mg/kg/d): 23.432 | PROSTATE diff. % vs. control (relative organ weight) (60 mg/kg/d): −58% | PROSTATE per 100 g BW relative (mean relative organ weight) (60 mg/kg/d): 0.033 | TESTES diff. % vs. control (relative organ weight) (60 mg/kg/d): +9% | TESTES per 100 g BW relative (mean relative organ weight) (60 mg/kg/d): 0.1853 | PROSTATE absolute (mean absolute organ weight) (60 mg/kg/d): 4.429 | TESTES absolute (mean absolute organ weight) (60 mg/kg/d): 24.753 | reduced weights of the prostate gland compared to the control (6 mg/kg/d oral): insignificant trend | microscopic changes of the prostate (animals affected) (20 mg/kg/d oral): most | reduced weights of the prostate gland compared to the control (20 mg/kg/d oral): 37% | microscopic changes of the prostate (animals affected) (60 mg/kg/d oral): all males | reduced weights of the prostate gland compared to the control (60 mg/kg/d oral): 58%
